Laboratory results: paper PMC12881674, “Activation of TRPV3 channels in bladder cancer cells stimulates ATP release” (Molecular Pharmacology, 2025)

Target: T1, TRPV3 in KU-19-19 cells (Homo sapiens, UniProt Q8NET8)
T1 construct: host or cells: KU-19-19
T1 sequence (Q8NET8 1-790): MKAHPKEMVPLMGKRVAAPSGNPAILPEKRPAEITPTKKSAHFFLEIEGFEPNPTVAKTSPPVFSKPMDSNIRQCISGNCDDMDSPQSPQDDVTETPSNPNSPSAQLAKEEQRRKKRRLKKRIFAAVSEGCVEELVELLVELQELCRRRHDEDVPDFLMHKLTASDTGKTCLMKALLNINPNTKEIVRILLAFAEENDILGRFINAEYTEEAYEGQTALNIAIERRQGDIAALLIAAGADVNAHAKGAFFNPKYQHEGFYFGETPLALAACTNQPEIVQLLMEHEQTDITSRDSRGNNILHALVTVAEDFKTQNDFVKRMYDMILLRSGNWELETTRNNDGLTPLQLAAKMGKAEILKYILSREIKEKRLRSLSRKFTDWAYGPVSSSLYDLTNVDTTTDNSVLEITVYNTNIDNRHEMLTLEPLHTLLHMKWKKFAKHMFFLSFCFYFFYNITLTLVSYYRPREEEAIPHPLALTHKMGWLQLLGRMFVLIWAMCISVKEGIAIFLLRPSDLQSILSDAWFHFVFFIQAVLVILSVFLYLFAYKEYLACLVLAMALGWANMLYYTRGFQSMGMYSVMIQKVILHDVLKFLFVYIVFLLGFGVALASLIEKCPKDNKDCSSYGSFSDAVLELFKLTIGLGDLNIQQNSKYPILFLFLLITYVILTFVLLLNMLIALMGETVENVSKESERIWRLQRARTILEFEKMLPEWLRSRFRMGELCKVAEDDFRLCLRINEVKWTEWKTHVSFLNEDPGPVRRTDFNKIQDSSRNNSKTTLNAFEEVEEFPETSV
Experiment: whole-cell patch-clamp recordings in KU-19-19 cells
Type: cell-based
Experimental: Supplementation of the cellular cholesterol content in KU-19-19 cells was performed by adding cholesterol-loaded methyl-β-cyclodextrin (MβCD) to the cells. Cholesterol was dissolved in ethanol (20 mg/mL) by heating at 65 °C for 15 minutes. The cholesterol solution was then added dropwise to a 250 mM MβCD solution prepared in phosphate-buffered solution (PBS; Sigma Aldrich) at a 1:4 (v/v) ratio, yielding a stock containing 200 mM MβCD-cholesterol. KU-19-19 cells were incubated for 15 minutes at 37 °C in HBS containing 2.5 mM MβCD-cholesterol. As a control, KU-19-19 cells were incubated in HBS without MβCD-cholesterol supplement under the same conditions. […]
Fig. 3 TRPV3 is functionally expressed in bladder cancer cells. (A–D) Activation of TRPV3 in KU-19-19 (A, B) and CAL-29 (C, D) bladder cancer cells by AV3-1, assessed by fura-2-based Ca^2+ assays. […] (B, D) Quantification of peak [Ca^2+]ᵢ responses from KU-19-19 (B) and CAL-29 (D) cells under the indicated treatment conditions. Statistical significance was determined using one-way ANOVA with Tukey post hoc analysis; ∗P < .05. […] Current amplitudes were recorded using voltage ramps from −100 mV to +100 mV (500-millisecond duration) such as in F and expressed as current density (pA/pF) measured at +100 mV and −100 mV. […] Statistical significance was determined using Kruskal-Wallis ANOVA followed by Conover test; ∗P < .05. […]

SMILES: COC(=O)C12CN(Cc3ccccc3)CC1(C(=O)OC)CN(Cc1ccccc1)C2 (centres unmarked) [AV3-1]
- currents under cholesterol-loaded conditions compared with untreated cells (50 μM AV3-1, KU-19-19 cells preincubated with 2.5 mM MβCD-cholesterol): substantially larger currents
- TRPV3 currents in KU-19-19 cells (50 μM AV3-1, repeated applications): robustly and reproducibly activated TRPV3 currents
